The source of these data is patent US20040202728A1, “Method for the destruction of oocysts” (priority 2001, published 2004).

This assay deals with Cryptosporidium oocysts. Briefly: Microelectrophoresis of oocysts in the presence of water treatment coagulants. As for the experimental part:
The zeta potentials of Cryptosporidium oocysts in the presence 5 mg/L ferric chloride were studied over a pH range 3-10.
As with the ferric flocs, it was possible to differentiate between the alum flocs and the oocyst in solution because of their different size, shape and scattering ability. The zeta potentials of Cryptosporidium oocysts in the presence of 6.8 mg/L alum were studied over a pH range 4-8.

Structures are written as SMILES.

As for `O=S(=O)([O-])[O-].O=S(=O)([O-])[O-].O=S(=O)([O-])[O-].[Al+3].[Al+3]` [alum], the “adsorption of coagulant species to oocysts (from zeta potentials)” value (6.8 mg/L, pH range 4-8) is “chemisorbed to the oocyst surface”.
For `[Cl][Fe]([Cl])[Cl]` [ferric chloride], where the note is “5 mg/L, pH range 3-10”, the “adsorption of coagulant species to oocysts (from zeta potentials)” value is “no adsorption”.
